Where two headings read alike, the source gives them in different places. Ends that are not written are not given here.
Legend:
HEK293 cells = assay: Cytotoxicity, MTT assay; type: cell-based, human; conditions: 20–24 h
Protocol: The cytotoxicity of each peptide was determined in HEK293 cells using the thiazolylblue (MTT) assay as described by Zhu. Briefly, HEK293 cells were subcultured overnight in 96-well plates with 10% fetal calf serum and […] at 37 °C in 5% CO2. The cell suspension was then prepared. Two-fold serial dilutions of the peptides were prepared using DMEM. Cell suspensions were added to the plates and incubated for 20–24 h at 37 °C in a cell incubator. Next, 40 μL MTT solution was added to every well, and the plates were incubated for 4 h at 37 °C. Finally, 150 μL DMSO was added to each well, the plates were shaken for 10 min, and the absorbance was measured at 492 nm using a microplate reader.

[1] = test system: Salmonella pullorum C 7913; type: cell-based; conditions: 18 h
S. aureus ATCC 29213 = type: cell-based
[2] = test system: Salmonella typhimurium C 7731; type: cell-based
Protocol: (§2) The antimicrobial activity of the peptides were defined as the minimum inhibitory concentrations (MIC) according to the Clinical and Laboratory Standards Institute broth microdilution method as described previously [47]. Briefly, 50 μL two-fold serial dilutions of peptides (with final concentrations ranging from 0 μM to 256 μM) and 50 μL bacterial fluids diluted with MHB were added to 96-well microtiter plates. The plates were then incubated at 37 °C for 18 h.

E. coli UB 1005 = type: cell-based; conditions: UB 1005, 18 h
Protocol: as §2

[3] = test system: S. epidermidis ATCC 12228; type: cell-based
Protocol: as §2

E. coli ATCC 25922 = type: cell-based; conditions: ATCC25922, 18 h
Protocol: as §2

S. aureus ATCC 25923 = type: cell-based
E. coli ATCC25922 = conditions: for MIC in the presence of Ca2+ / MIC in the presence of Fe3+ / MIC in the presence of K+ / MIC in the presence of Mg2+ / MIC in the presence of NH4+ / MIC in the presence of Na+ / MIC in the presence of Zn2+ / MIC, Control (enzymatic stability) / MIC, Control (salt stability) / MIC, Control (thermal stability): ATCC25922, 18 h; for MIC after Trypsin: peptide treated with 1 mg/mL trypsin
Protocol: (§1) The antimicrobial activity of the peptides were defined as the minimum inhibitory concentrations (MIC) according to the Clinical and Laboratory Standards Institute broth microdilution method as described previously. Briefly, 50 μL two-fold serial dilutions of peptides (with final concentrations ranging from 0 μM to 256 μM) and 50 μL bacterial fluids diluted with MHB were added to 96-well microtiter plates. The plates were then incubated at 37 °C for 18 h.
We assessed the salt stability, thermal stability, and enzymatic stability of the AMPs. Briefly, E. coli ATCC25922 was selected as the test bacterium. The control group was untreated peptides. Different concentrations of salts (150 mM NaCl, 4.5 mM KCl, 6 μM NH4Cl, 1 mM MgCl2, […], 8 mM […], 2.5 mM CaCl2, and 4 mM FeCl3) were added to the incubation buffer to examine the effect of each salt on the antimicrobial activities of the peptides. AMPs were treated for 1 h at 100 °C to test the thermal stability. AMPs were also treated with trypsin, pepsin, papain, and protease K at a concentration of 1 mg/mL for 1 h at 37 °C to test enzyme stability.

[4] = test system: Salmonella enterica subsp. CMCC 50071; conditions: MHB, 37 °C, 18 h, peptides 0-256 μM, triplicate samples
Protocol: as §1

[5] = test system: Salmonella typhimurium ATCC 14028; type: cell-based
Protocol: as §2

CC[C@H](C)[C@H](NC(=O)CN)C(=O)NCC(=O)N[C@@H](C)C(=O)N[C@H](C(=O)N[C@@H](CC(C)C)C(=O)N[C@@H](CCCCN)C(=O)N[C@H](C(=O)N[C@@H](CC(C)C)C(=O)N[C@H](C(=O)N[C@H](C(=O)NCC(=O)N[C@@H](CC(C)C)C(=O)N1CCC[C@H]1C(=O)N[C@@H](C)C(=O)N[C@@H](CC(C)C)C(=O)N[C@H](C(=O)N[C@@H](CO)C(=O)N[C@@H](Cc1c[nH]c2ccccc12)C(=O)N[C@H](C(=O)N[C@@H](CCCCN)C(=O)N[C@@H](CCCNC(=N)N)C(=O)N[C@@H](CCCCN)C(=O)N[C@@H](CCCNC(=N)N)C(=O)N[C@@H](CCC(N)=O)C(=O)N[C@@H](CCC(N)=O)C(N)=O)[C@@H](C)CC)[C@@H](C)CC)[C@@H](C)O)[C@@H](C)O)C(C)C)C(C)C [melittin]
cell viability (HEK293 cells; 4 μM): 41.95% | cell viability (HEK293 cells; 8 μM): 23.40% | cell viability (HEK293 cells; 16 μM): 0%

KWRRWQWRRWK-NH2 [KW-WK]
MIC [1]: 16 µM | MIC (S. aureus ATCC 29213; ATCC 29213, 18 h): 8 µM | MIC ([2]; murium C 7731, 18 h): 16 µM | MIC (E. coli UB 1005): 8 µM | MIC ([3]; ATCC 12228, 18 h): 8 µM | MIC (E. coli ATCC 25922): 4 µM | MIC (S. aureus ATCC 25923; ATCC 25923, 18 h): 32 µM | MIC after Papain (E. coli ATCC25922; ATCC25922, 1 h): 8 µM | MIC after Pepsin (E. coli ATCC25922; ATCC25922, 1 h): 16 µM | MIC after Protease K (E. coli ATCC25922; ATCC25922, 1 h): 8 µM | MIC following heating at 100 °C (E. coli ATCC25922; ATCC25922, 1 h): 4 µM | MIC in the presence of Ca2+ (E. coli ATCC25922): 8 µM | MIC in the presence of Fe3+ (E. coli ATCC25922): 4 µM | MIC in the presence of K+ (E. coli ATCC25922): 4 µM | MIC in the presence of Mg2+ (E. coli ATCC25922): 8 µM | MIC in the presence of NH4+ (E. coli ATCC25922): 8 µM | MIC in the presence of Na+ (E. coli ATCC25922): 8 µM | MIC in the presence of Zn2+ (E. coli ATCC25922): 8 µM | MIC, Control (enzymatic stability) (E. coli ATCC25922): 4 µM | MIC, Control (salt stability) (E. coli ATCC25922): 4 µM | MIC, Control (thermal stability) (E. coli ATCC25922): 4 µM | MIC after Trypsin (E. coli ATCC25922; E. coli ATCC25922, 1 h, 37 °C): >128 µM | MIC [4]: 128 µM | MIC ([5]; ATCC 14028, 18 h): 32 µM

KKRRWQWRRKK-NH2 [KK-KK]
MIC ([1]; Salmonella pullorum C 7913, MHB, 37 °C, peptides 0-256 μM, triplicate samples): 128 µM | MIC (S. aureus ATCC 29213; S. aureus ATCC 29213, MHB, 37 °C, 18 h, peptides 0-256 μM, triplicate samples): >128 µM | MIC ([2]; Salmonella typhimurium C 7731, MHB, 37 °C, 18 h, peptides 0-256 μM, triplicate samples): >128 µM | MIC (E. coli UB 1005): 32 µM | MIC ([3]; S. epidermidis ATCC 12228, MHB, 37 °C, 18 h, peptides 0-256 μM, triplicate samples): >128 µM | MIC (E. coli ATCC 25922): 32 µM | MIC (S. aureus ATCC 25923; S. aureus ATCC 25923, MHB, 37 °C, 18 h, peptides 0-256 μM, triplicate samples): 128 µM | MIC in the presence of Ca2+ (E. coli ATCC25922): 16 µM | MIC in the presence of Fe3+ (E. coli ATCC25922): 8 µM | MIC in the presence of K+ (E. coli ATCC25922): 16 µM | MIC in the presence of Mg2+ (E. coli ATCC25922): 64 µM | MIC in the presence of NH4+ (E. coli ATCC25922): 8 µM | MIC in the presence of Na+ (E. coli ATCC25922): 16 µM | MIC in the presence of Zn2+ (E. coli ATCC25922): 8 µM | MIC, Control (enzymatic stability) (E. coli ATCC25922): 32 µM | MIC, Control (salt stability) (E. coli ATCC25922): 32 µM | MIC, Control (thermal stability) (E. coli ATCC25922): 32 µM | MIC following heating at 100 °C (E. coli ATCC25922; E. coli ATCC25922, peptide treated 1 h at 100 °C): >128 µM | MIC after Papain (E. coli ATCC25922; E. coli ATCC25922, peptide treated with 1 mg/mL papain, 1 h, 37 °C): >128 µM | MIC after Pepsin (E. coli ATCC25922; E. coli ATCC25922, peptide treated with 1 mg/mL pepsin, 1 h, 37 °C): >128 µM | MIC after Protease K (E. coli ATCC25922; E. coli ATCC25922, peptide treated with 1 mg/mL protease K, 1 h, 37 °C): >128 µM | MIC after Trypsin (E. coli ATCC25922; E. coli ATCC25922, 1 h, 37 °C): >128 µM | MIC [4]: 128 µM | MIC ([5]; Salmonella typhimurium ATCC 14028, MHB, 37 °C, 18 h, peptides 0-256 μM, triplicate samples): >128 µM

Source: publication PMC6213309, “Antibacterial Activity and Mechanism of Action of Bovine Lactoferricin Derivatives with Symmetrical Amino Acid Sequences” (International Journal of Molecular Sciences, 2018)
